Test results from patent EP0295827A2, “Use of 24,25-dihydroxy-cholecalciferol in mending bone fractures” (priority 1987, dated 1988).

Assays:
ICR mice [1] = assay: 30-day repeated oral administration: urine analysis; format: in vivo; design: key: ↓: Decreased; →: No change; ↑: Increased; conditions: 30 days, vs control group
Description: (§1) 24R,25-(OH)₂-D₃ was dissolved in 1% ethanol containing Panacate 810 to a predetermined concentration and the resultant solution was forcibly and orally administered to 5-week-old male or female ICR mice for 30 days in succession so that the does might become to 10 µg/kg/day, 100 µg/kg/day and 1,000 µg/kg/day, respectively. The thus treated mice were compared with a group of mice to which only the solvent had been administered in the following test items.

[2] = tested on: rabbits suffering fracture; assay: Fibula fracture model: X-ray inspection; format: in vivo, Japanese white house rabbits; conditions: 100 µg/kg oral, 3 weeks after the bones had been broken
Source text: The right fibulae of mature house rabbits (Japanese white house rabbits having a weight of about 3 kg) were broken at the central portions under anesthetic with a dental hand drill. Each of the house rabbits was kept in a separate cage and was allowed to take an ordinary solid food (CR-1, produced by Nippon Clare Corp.) and city water freely. 24R,25-(OH)₂-D₃ and 24S,25-(OH)₂-D₃ were dispersed in an aqueous 0.5% CMC solution and orally administered to the house rabbits through a rubber catheter. The experimental groups were as follows:
The respective medicines or aqueous 0.5% CMC solution was administered to these house rabbits for 3 weeks or 6 weeks after the bones had been broken. Thereafter, the house rabbits were killed and the fibulae were taken out for X-ray inspection and a strength test (bending test by DDV-VMF produced by Toyo Baldwin Co., Ltd.).

ICR mice [3] = assay: 30-day repeated oral administration: general blood test; format: in vivo; design: key: ↓: Decreased; →: No change; ↑: Increased; conditions: 30 days, vs control group
Description: as §1

ICR mice [4] = assay: 30-day repeated oral administration: weight of organs; format: in vivo; design: key: ↓: Decreased; →: No change; ↑: Increased; conditions: 30 days, vs control group
Description: as §1

C=C1CC[C@H](O)C/C1=C/C=C1\CCC[C@]2(C)[C@@H]([C@H](C)CC[C@@H](O)C(C)(C)O)CC[C@@H]12 [24R,25-(OH)₂-D₃]
Ketone body (ICR mice [1]; female, 10 μg/kg oral): → | Occult blood (ICR mice [1]; female, 10 μg/kg oral): → | Protein (ICR mice [1]; female, 10 μg/kg oral): → | Sugar (ICR mice [1]; female, 10 μg/kg oral): → | Urobilinogen (ICR mice [1]; female, 10 μg/kg oral): → | pH (ICR mice [1]; female, 10 μg/kg oral): → | Ketone body (ICR mice [1]; female, 100 μg/kg oral): → | Occult blood (ICR mice [1]; female, 100 μg/kg oral): → | Protein (ICR mice [1]; female, 100 μg/kg oral): → | Sugar (ICR mice [1]; female, 100 μg/kg oral): → | Urobilinogen (ICR mice [1]; female, 100 μg/kg oral): → | pH (ICR mice [1]; female, 100 μg/kg oral): → | Ketone body (ICR mice [1]; female, 1000 μg/kg oral): → | Occult blood (ICR mice [1]; female, 1000 μg/kg oral): → | Protein (ICR mice [1]; female, 1000 μg/kg oral): → | Sugar (ICR mice [1]; female, 1000 μg/kg oral): → | Urobilinogen (ICR mice [1]; female, 1000 μg/kg oral): → | pH (ICR mice [1]; female, 1000 μg/kg oral): → | Ketone body (ICR mice [1]; male, 10 μg/kg oral): → | Occult blood (ICR mice [1]; male, 10 μg/kg oral): → | Protein (ICR mice [1]; male, 10 μg/kg oral): → | Sugar (ICR mice [1]; male, 10 μg/kg oral): → | Urobilinogen (ICR mice [1]; male, 10 μg/kg oral): → | pH (ICR mice [1]; male, 10 μg/kg oral): → | Ketone body (ICR mice [1]; male, 100 μg/kg oral): → | Occult blood (ICR mice [1]; male, 100 μg/kg oral): → | Protein (ICR mice [1]; male, 100 μg/kg oral): → | Sugar (ICR mice [1]; male, 100 μg/kg oral): → | Urobilinogen (ICR mice [1]; male, 100 μg/kg oral): → | pH (ICR mice [1]; male, 100 μg/kg oral): → | Ketone body (ICR mice [1]; male, 1000 μg/kg oral): → | Occult blood (ICR mice [1]; male, 1000 μg/kg oral): → | Protein (ICR mice [1]; male, 1000 μg/kg oral): → | Sugar (ICR mice [1]; male, 1000 μg/kg oral): → | Urobilinogen (ICR mice [1]; male, 1000 μg/kg oral): → | pH (ICR mice [1]; male, 1000 μg/kg oral): → | X-ray inspection [2]: the cure of the fracture was accelerated | Amount of hemoglobin (ICR mice [3]; female, 10 μg/kg·day oral): → | Homatocrit (ICR mice [3]; female, 10 μg/kg·day oral): → | Number of erythrocyte (ICR mice [3]; female, 10 μg/kg·day oral): → | Number of leucocyte (ICR mice [3]; female, 10 μg/kg·day oral): → | Amount of hemoglobin (ICR mice [3]; female, 100 μg/kg·day oral): → | Homatocrit (ICR mice [3]; female, 100 μg/kg·day oral): → | Number of erythrocyte (ICR mice [3]; female, 100 μg/kg·day oral): → | Number of leucocyte (ICR mice [3]; female, 100 μg/kg·day oral): → | Amount of hemoglobin (ICR mice [3]; female, 1000 μg/kg·day oral): → | Homatocrit (ICR mice [3]; female, 1000 μg/kg·day oral): → | Number of erythrocyte (ICR mice [3]; female, 1000 μg/kg·day oral): → | Number of leucocyte (ICR mice [3]; female, 1000 μg/kg·day oral): → | Amount of hemoglobin (ICR mice [3]; male, 10 μg/kg·day oral): → | Homatocrit (ICR mice [3]; male, 10 μg/kg·day oral): → | Number of erythrocyte (ICR mice [3]; male, 10 μg/kg·day oral): → | Number of leucocyte (ICR mice [3]; male, 10 μg/kg·day oral): → | Amount of hemoglobin (ICR mice [3]; male, 100 μg/kg·day oral): → | Homatocrit (ICR mice [3]; male, 100 μg/kg·day oral): → | Number of erythrocyte (ICR mice [3]; male, 100 μg/kg·day oral): → | Number of leucocyte (ICR mice [3]; male, 100 μg/kg·day oral): → | Amount of hemoglobin (ICR mice [3]; male, 1000 μg/kg·day oral): → | Homatocrit (ICR mice [3]; male, 1000 μg/kg·day oral): → | Number of erythrocyte (ICR mice [3]; male, 1000 μg/kg·day oral): → | Number of leucocyte (ICR mice [3]; male, 1000 μg/kg·day oral): → | Weight of organs: Adrenal gland (ICR mice [4]; gemale, 10 μg/kg·day oral): → | Weight of organs: Brain (ICR mice [4]; gemale, 10 μg/kg·day oral): → | Weight of organs: Heart (ICR mice [4]; gemale, 10 μg/kg·day oral): → | Weight of organs: Hypo-physis (ICR mice [4]; gemale, 10 μg/kg·day oral): → | Weight of organs: Kidney (ICR mice [4]; gemale, 10 μg/kg·day oral): → | Weight of organs: Liver (ICR mice [4]; gemale, 10 μg/kg·day oral): → | Weight of organs: Lung (ICR mice [4]; gemale, 10 μg/kg·day oral): → | Weight of organs: Ovary (ICR mice [4]; gemale, 10 μg/kg·day oral): → | Weight of organs: Spleen (ICR mice [4]; gemale, 10 μg/kg·day oral): → | Weight of organs: Thymus (ICR mice [4]; gemale, 10 μg/kg·day oral): → | Weight of organs: Uterus (ICR mice [4]; gemale, 10 μg/kg·day oral): → | Weight of organs: Adrenal gland (ICR mice [4]; gemale, 100 μg/kg·day oral): → | Weight of organs: Brain (ICR mice [4]; gemale, 100 μg/kg·day oral): → | Weight of organs: Heart (ICR mice [4]; gemale, 100 μg/kg·day oral): → | Weight of organs: Hypo-physis (ICR mice [4]; gemale, 100 μg/kg·day oral): → | Weight of organs: Kidney (ICR mice [4]; gemale, 100 μg/kg·day oral): → | Weight of organs: Liver (ICR mice [4]; gemale, 100 μg/kg·day oral): → | Weight of organs: Lung (ICR mice [4]; gemale, 100 μg/kg·day oral): → | Weight of organs: Ovary (ICR mice [4]; gemale, 100 μg/kg·day oral): → | Weight of organs: Spleen (ICR mice [4]; gemale, 100 μg/kg·day oral): → | Weight of organs: Thymus (ICR mice [4]; gemale, 100 μg/kg·day oral): → | Weight of organs: Uterus (ICR mice [4]; gemale, 100 μg/kg·day oral): → | Weight of organs: Adrenal gland (ICR mice [4]; gemale, 1000 μg/kg·day oral): → | Weight of organs: Brain (ICR mice [4]; gemale, 1000 μg/kg·day oral): → | Weight of organs: Heart (ICR mice [4]; gemale, 1000 μg/kg·day oral): → | Weight of organs: Hypo-physis (ICR mice [4]; gemale, 1000 μg/kg·day oral): → | Weight of organs: Kidney (ICR mice [4]; gemale, 1000 μg/kg·day oral): → | Weight of organs: Liver (ICR mice [4]; gemale, 1000 μg/kg·day oral): → | Weight of organs: Lung (ICR mice [4]; gemale, 1000 μg/kg·day oral): → | Weight of organs: Ovary (ICR mice [4]; gemale, 1000 μg/kg·day oral): → | Weight of organs: Spleen (ICR mice [4]; gemale, 1000 μg/kg·day oral): → | Weight of organs: Thymus (ICR mice [4]; gemale, 1000 μg/kg·day oral): → | Weight of organs: Uterus (ICR mice [4]; gemale, 1000 μg/kg·day oral): → | Weight of organs: Adrenal gland (ICR mice [4]; male, 10 μg/kg·day oral): → | Weight of organs: Brain (ICR mice [4]; male, 10 μg/kg·day oral): → | Weight of organs: Heart (ICR mice [4]; male, 10 μg/kg·day oral): → | Weight of organs: Hypo-physis (ICR mice [4]; male, 10 μg/kg·day oral): → | Weight of organs: Kidney (ICR mice [4]; male, 10 μg/kg·day oral): → | Weight of organs: Liver (ICR mice [4]; male, 10 μg/kg·day oral): → | Weight of organs: Lung (ICR mice [4]; male, 10 μg/kg·day oral): → | Weight of organs: Spleen (ICR mice [4]; male, 10 μg/kg·day oral): → | Weight of organs: Testis (ICR mice [4]; male, 10 μg/kg·day oral): →
